Patent publication EP0003212A1, “2.4-Diamino-5-benzylpyrimidines, pharmaceutical compositions containing them and their preparation” (F. HOFFMANN-LA ROCHE & CO. Aktiengesellschaft, priority 1977, dated 1979)
Like-named read-outs stand apart in the source and are kept apart here.

Experiments:
[1] = molecular target: bakterielle Dihydrofolsäurereduktase (DHFR) (Escherichia coli, UniProt P0ABQ4); assay: 50% inhibition of bacterial dihydrofolate reductase; type: biochemical, E. coli
Source text: Die Verbindungen der Formel I und ihre Salze sind antibakteriell wirksam. Sie hemmen die bakterielle Dihydrofolsäurereduktase (DHFR) und potenzieren darüberhinaus die Wirkung von Sulfonamiden und anderen Dihydrofolsäuresynthetasehemmern. Beispiele von Sulfonamiden, die durch die erfindungsgemässen Verbindungen potenziert werden, sind solche der Pyrimidin-, Isoxazol-, Oxazol- und Pyrazinreihe wie Sulfadiazin, Sulfadimethoxin, Sulfadoxin, Sulfamerazin, Sulfameter, Sulfamethazin, 6-Methoxy-4-sulfanilamidopyrimidin, Sulfamethoxazol, Sulfisoxazol, 3-Sulfanilamido-4,5-dimethyl-isoxazol, Sulfamoxol und Sulfalen. Quantitativ zeichnen sich die erfindungsgemässen Verbindungen gegenüber bekannten Verbindungen durch niedrigere 50%ige Hemmkonzentrationen der bakteriellen DHFR, beispielsweise bei E. coli, und durch wesentlich höhere Q-Werte (50%ige Hemmung der DHFR bei Ratte/50%ige Hemmung der DHFR bei E. coli), die ein Mass für die Selektivität der Hemmung der bakteriellen DHFR darstellen, sowie durch geringe Toxizität aus.

E. coli 1346 = assay: In vitro antibacterial activity (MIC); type: cell-based; settings: strain E. coli 1346, unit not given
S. aureus Schoch. = assay: In vitro antibacterial activity (MIC); type: cell-based; settings: strain S. aureus Schoch., unit not given
[2] = DHFR of E. coli, read-out: 50% Hemmung der DHFR (M x 10^-8) E. coli

## COc1c(SC)cc(Cc2cnc(N)nc2N)cc1SC [R^1=H, R^2=SCH3, R^3=OCH3, R^4=SCH3]
[1]; [2]
  IC50: 7.2 nM
E. coli 1346
  Aktivität in vitro (MIC) E. coli 1346: 0,7
S. aureus Schoch.
  Aktivität in vitro (MIC) S. aureus Schoch.: 0,2

## COCCSc1c(OC)cc(Cc2cnc(N)nc2N)cc1OC [R^1=H, R^2=OCH3, R^3=SC2H4OCH3, R^4=OCH3]
[1]; [2]
  IC50: 97 nM
S. aureus Schoch.
  Aktivität in vitro (MIC) S. aureus Schoch.: 1,0

## CSc1cc(Cc2cnc(N)nc2N)cc(SC)c1SC [R^1=H, R^2=SCH3, R^3=SCH3, R^4=SCH3]
[1]; [2]
  IC50: 4.5 nM
E. coli 1346
  Aktivität in vitro (MIC) E. coli 1346: 0,2
S. aureus Schoch.
  Aktivität in vitro (MIC) S. aureus Schoch.: 0,2

## CSc1ccc(Cc2cnc(N)nc2N)cc1SC [R^1=H, R^2=H, R^3=SCH3, R^4=SCH3]
[1]; [2]
  IC50: 16 nM
S. aureus Schoch.
  Aktivität in vitro (MIC) S. aureus Schoch.: 0,7

## CSc1cc(C)c(Cc2cnc(N)nc2N)cc1SC [R^1=CH3, R^2=H, R^3=SCH3, R^4=SCH3, 2,4-Diamino-5-[2-methyl-4,5-bis-(methylthio)-benzyl]-pyrimidin]
[1]
  IC50: 15 nM
E. coli 1346
  Aktivität in vitro (MIC) E. coli 1346: 0,7
S. aureus Schoch.
  Aktivität in vitro (MIC) S. aureus Schoch.: 0,7

## COc1cc(Cc2cnc(N)nc2N)cc(SC)c1OC [R^1=H, R^2=SCH3, R^3=OCH3, R^4=OCH3]
[1]; [2]
  IC50: 5 nM
E. coli 1346
  Aktivität in vitro (MIC) E. coli 1346: 0,1
S. aureus Schoch.
  Aktivität in vitro (MIC) S. aureus Schoch.: 0,78

## COc1c(Br)cc(Cc2cnc(N)nc2N)cc1SC [R^1=H, R^2=SCH3, R^3=OCH3, R^4=Br]
[1]; [2]
  IC50: 11 nM
E. coli 1346
  Aktivität in vitro (MIC) E. coli 1346: 0,2
S. aureus Schoch.
  Aktivität in vitro (MIC) S. aureus Schoch.: 1,0

## COc1cc(Cc2cnc(N)nc2N)cc(OC)c1SC [R^1=H, R^2=OCH3, R^3=SCH3, R^4=OCH3, 2,4-Diamino-5-[3,5-dimethoxy-4-(methylthio)-benzyl]-pyrimidin]
[1]
  IC50: 3.5 nM
E. coli 1346
  Aktivität in vitro (MIC) E. coli 1346: 0,02
S. aureus Schoch.
  Aktivität in vitro (MIC) S. aureus Schoch.: 0,4

## CCSc1c(OC)cc(Cc2cnc(N)nc2N)cc1OC [R^1=H, R^2=OCH3, R^3=SC2H5, R^4=OCH3, 2,4-Diamino-5-[4-(äthylthio)-3,5-dimethoxybenzyl]-pyrimidin]
[1]; [2]
  IC50: 1.8 nM
E. coli 1346
  Aktivität in vitro (MIC) E. coli 1346: 0,04
S. aureus Schoch.
  Aktivität in vitro (MIC) S. aureus Schoch.: 0,4

## CSc1cc(Cc2cnc(N)nc2N)cc(SC)c1-n1cccc1 [R^1=H, R^2=SCH3, R^3=[drawing], R^4=SCH3]
[1]; [2]
  IC50: 5.2 nM
E. coli 1346
  Aktivität in vitro (MIC) E. coli 1346: > 1
S. aureus Schoch.
  Aktivität in vitro (MIC) S. aureus Schoch.: 4,0
